# Test results published in PMC5026608 (ACS chemical biology, 2016).
# Biological target: hMAT2A (Homo sapiens, UniProt P31153)
# Assay: RP-HPLC of AdoMet product formation
# Type: biochemical
# Settings: read-out: Km μmol L^-1; saturating ATP 2 mM; 25 mM Tris pH 8.0, 10 mM MgCl2, 50 mM KCl; 37 °C; text prints error ± 27
# Sequence of hMAT2A (P31153 whole entry): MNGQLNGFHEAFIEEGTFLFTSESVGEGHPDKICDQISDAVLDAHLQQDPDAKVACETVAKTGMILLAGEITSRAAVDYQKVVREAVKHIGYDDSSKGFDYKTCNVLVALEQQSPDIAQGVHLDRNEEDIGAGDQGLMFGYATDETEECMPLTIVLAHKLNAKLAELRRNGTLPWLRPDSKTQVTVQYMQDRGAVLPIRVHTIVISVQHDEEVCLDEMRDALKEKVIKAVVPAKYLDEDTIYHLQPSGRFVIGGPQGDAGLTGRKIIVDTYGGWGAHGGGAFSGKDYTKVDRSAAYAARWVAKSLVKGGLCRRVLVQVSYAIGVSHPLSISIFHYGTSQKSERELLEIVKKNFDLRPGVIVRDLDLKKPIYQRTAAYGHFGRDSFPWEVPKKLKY
smiles,measurement,value
CSCC[C@H](N)C(=O)O [LMet],Km,397 ± 29 µM
